Measured values taken from patent publication US7507817B2, “Prostaglandin prodrugs” (Allergan, Inc., priority 2006, dated 2009).
Values belong to the compound of their own block, whether it stands above or below them.

Assays:
Type in all cases: in vivo
normotensive dogs [1] = assay: Intraocular pressure (IOP) decrease in normotensive dogs; conditions: once daily for 5 days
Procedure: (§1) (Z)-7-[(1R,2S,3R,5R)-5-Chloro-2-(3,5-dichloro-phenoxymethyl)-3-hydroxy-cyclopentyl]-hept-5-enoic acid 2-hydroxy-ethyl ester (1) was tested in normotensive dogs at 0.1%, dosing once daily for 5 days. The maximum intraocular pressure (IOP) decrease from baseline was 6.6 mmHg (40%) at 78 h; the maximum ocular surface hyperemia (OSH) score was 0.9 at 50 h. This compound was also tested in laser-induced hypertensive monkeys, using one single day dose. At 0.1%, the maximum IOP decrease from baseline was 12.5 mmHg (33%) at […]
(§2) (Z)-7-[(1R,2S,3R,5R)-5-Chloro-2-(3,5-dichloro-phenoxymethyl)-3-hydroxy-cyclopentyl]-hept-5-enoic acid 2-morpholin-4-yl-ethyl ester (2) was tested in normotensive dogs at 0.1%, dosing once daily for 5 days. The maximum intraocular pressure (IOP) decrease from baseline was 5.1 mmHg (34%) at 78 h; the maximum ocular surface hyperemia (OSH) score was 0.9 at 30 h. This compound was also tested in laser-induced hypertensive monkeys, using one single day dose. At 0.1%, the maximum IOP decrease from baseline was 11.9 mmHg (32%) at 6 h.
(§3) (Z)-7-[(1R,2S,3R,5R)-5-Chloro-2-(3,5-dichloro-phenoxymethyl)-3-hydroxy-cyclopentyl]-hept-5-enoic acid was tested at multiple concentrations in normotensive dogs, dosing once daily for 5 days. At 0.05%, the maximum IOP decrease from baseline was 4.3 mmHg (30%) at 6 h; the maximum OSH score was 0.6 at 6 h. At 0.1%, the maximum IOP decrease from baseline was 4.8 mmHg (34%) at 102 h; the maximum OSH score was 1.3 at 6 h. This compound was also tested in laser-induced hypertensive monkeys, using one single day dose. At 0.1%, the maximum IOP decrease from baseline was 6 mmHg (19%) at 6 h.
(§4) (Z)-7-[(1R,2S,3R,5R)-5-Chloro-2-(3,5-dichloro-phenoxymethyl)-3-hydroxy-cyclopentyl]-hept-5-enoic acid isopropyl ester was tested at multiple concentrations in normotensive dogs, dosing once daily for 5 days. At 0.01%, the maximum intraocular pressure (IOP) decrease from baseline was 1.1 mmHg (7%) at 2 h; the maximum ocular surface hyperemia (OSH) score was 0.6 at 74 h. At 0.05%, the maximum intraocular pressure (IOP) decrease from baseline was 2.8 mmHg (18%) at 6 h; the maximum ocular surface hyperemia (OSH) score was 0.6 at 74 h. This compound was also tested in laser-induced hypertensive monkeys, using one single day dose. At 0.01%, the maximum IOP decrease from baseline was 6.8 mmHg (18%) at 6 h. At 0.05%, the maximum IOP decrease from baseline was 6 mmHg (16%) at 2 h.

normotensive dogs [2] = assay: Ocular surface hyperemia (OSH) score in normotensive dogs; conditions: once daily for 5 days; for maximum OSH score: maximum at 6 h
Procedure: as §1, §2, §3, §4

[3] = test system: laser-induced hypertensive monkeys; assay: IOP decrease in laser-induced hypertensive monkeys; conditions: one single day dose
Procedure: as §1, §2, §3, §4

maximum OSH score (normotensive dogs [2]; 0.05%): 0.6
maximum OSH score (normotensive dogs [2]; 0.1%): 1.3
Compound: O=C(O)CCC/C=C\C[C@@H]1[C@@H](COc2cc(Cl)cc(Cl)c2)[C@H](O)C[C@H]1Cl [(Z)-7-[(1R,2S,3R,5R)-5-Chloro-2-(3,5-dichloro-phenoxymethyl)-3-hydroxy-cyclopentyl]-hept-5-enoic acid]
maximum IOP decrease from baseline (normotensive dogs [1]; 0.05%, maximum at 6 h): 4.3 mmHg
maximum IOP decrease from baseline (percent) (normotensive dogs [1]; 0.05%, maximum at 6 h): 30%
maximum IOP decrease from baseline (normotensive dogs [1]; 0.1%, maximum at 102 h): 4.8 mmHg
maximum IOP decrease from baseline (percent) (normotensive dogs [1]; 0.1%, maximum at 102 h): 34%
maximum IOP decrease from baseline ([3]; 0.1%, maximum at 6 h): 6 mmHg
maximum IOP decrease from baseline (percent) ([3]; 0.1%, maximum at 6 h): 19%

maximum ocular surface hyperemia (OSH) score (normotensive dogs [2]; 0.1%, maximum at 50 h): 0.9
Compound: O=C(CCC/C=C\C[C@@H]1[C@@H](COc2cc(Cl)cc(Cl)c2)[C@H](O)C[C@H]1Cl)OCCO [Compound 1, (Z)-7-[(1R,2S,3R,5R)-5-Chloro-2-(3,5-dichloro-phenoxymethyl)-3-hydroxy-cyclopentyl]-hept-5-enoic acid 2-hydroxy-ethyl ester]
maximum intraocular pressure (IOP) decrease from baseline (normotensive dogs [1]; 0.1%, maximum at 78 h): 6.6 mmHg
maximum intraocular pressure (IOP) decrease from baseline (percent) (normotensive dogs [1]; 0.1%, maximum at 78 h): 40%
maximum IOP decrease from baseline ([3]; 0.1%, maximum at 4): 12.5 mmHg
maximum IOP decrease from baseline (percent) ([3]; 0.1%, maximum at 4): 33%

maximum ocular surface hyperemia (OSH) score (normotensive dogs [2]; 0.1%, maximum at 30 h): 0.9
Compound: O=C(CCC/C=C\C[C@@H]1[C@@H](COc2cc(Cl)cc(Cl)c2)[C@H](O)C[C@H]1Cl)OCCN1CCOCC1 [Compound 2, (Z)-7-[(1R,2S,3R,5R)-5-Chloro-2-(3,5-dichloro-phenoxymethyl)-3-hydroxy-cyclopentyl]-hept-5-enoic acid 2-morpholin-4-yl-ethyl ester]
maximum intraocular pressure (IOP) decrease from baseline (normotensive dogs [1]; 0.1%, maximum at 78 h): 5.1 mmHg
maximum intraocular pressure (IOP) decrease from baseline (percent) (normotensive dogs [1]; 0.1%, maximum at 78 h): 34%
maximum IOP decrease from baseline ([3]; 0.1%, maximum at 6 h): 11.9 mmHg
maximum IOP decrease from baseline (percent) ([3]; 0.1%, maximum at 6 h): 32%

maximum ocular surface hyperemia (OSH) score (normotensive dogs [2]; 0.01%, maximum at 74 h): 0.6
maximum ocular surface hyperemia (OSH) score (normotensive dogs [2]; 0.05%, maximum at 74 h): 0.6
Compound: CC(C)OC(=O)CCC/C=C\C[C@@H]1[C@@H](COc2cc(Cl)cc(Cl)c2)[C@H](O)C[C@H]1Cl [(Z)-7-[(1R,2S,3R,5R)-5-Chloro-2-(3,5-dichloro-phenoxymethyl)-3-hydroxy-cyclopentyl]-hept-5-enoic acid isopropyl ester]
maximum intraocular pressure (IOP) decrease from baseline (normotensive dogs [1]; 0.01%, maximum at 2 h): 1.1 mmHg
maximum intraocular pressure (IOP) decrease from baseline (percent) (normotensive dogs [1]; 0.01%, maximum at 2 h): 7%
maximum IOP decrease from baseline (normotensive dogs [1]; 0.05%, maximum at 6 h): 2.8 mmHg
maximum IOP decrease from baseline (percent) (normotensive dogs [1]; 0.05%, maximum at 6 h): 18%
maximum IOP decrease from baseline ([3]; 0.01%, maximum at 6 h): 6.8 mmHg
maximum IOP decrease from baseline (percent) ([3]; 0.01%, maximum at 6 h): 18%
maximum IOP decrease from baseline ([3]; 0.05%, maximum at 2 h): 6 mmHg
maximum IOP decrease from baseline (percent) ([3]; 0.05%, maximum at 2 h): 16%
